Calls of active or inactive are those of the source.
Assays:
[1] = target: Dual specificity protein phosphatase 3 (Homo sapiens, UniProt P51452); test: VHR phosphatase inhibition, dose response, selectivity assay for STEP inhibitor project, biochemical (AID 602374); assay type: functional; settings: read-out: IC50_Mean
[2] = target: Tyrosine-protein phosphatase non-receptor type 5 (Homo sapiens, UniProt P54829); test: PTPN5 enzyme inhibition – biochemical, fluorescence intensity, uHTS hits, confirmation (AID 602372); assay type: functional; settings: read-out: IC50_Mean
[3] = target: Tyrosine-protein phosphatase non-receptor type 11 (Homo sapiens, UniProt Q06124); test: PTPN11 enzyme inhibitors – biochemical, selectivity assay for STEP inhibitor project, dose response (AID 602367); assay type: functional; settings: read-out: IC50_Mean
BJ [4] = test: BJ-TERT-LT-ST fibroblast viability loss – cell-based, RAS-independent, luminescence, dose response (AID 1935); assay type: functional; settings: Homo sapiens;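 further: BJ fibroblasts immortalized with TERT plus LT and ST oncogenes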
[5] = DRD fibroblast viability loss – cell-based, non-viral oncogenic, luminescence, dose response (AID 1934); assay type: functional; settings: Homo sapiens
Vero = test: cells; assay type: functional; settings: Chlorocebus sabaeus
BJ [6] = test: cells; assay type: functional, cell-based; settings: Homo sapiens
BJ [7] = test: growth inhibition of engineered Ras-driven BJ cells – cell-based, alamar blue fluorescence, cherrypicked samples, dose response (AID 2631); assay type: functional; settings: Homo sapiens;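 further: confirmatory dose-response assay in RAS-dependent BJ fibroblasts engineered with TERT, LT and ST, with cytotoxicity read by fluorescence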
BJ [8] = test: BJ-TERT fibroblast viability loss – cell-based, RAS-independent, luminescence, dose response (AID 1933); assay type: functional; settings: Homo sapiens
[9] = target: Luciferin 4-monooxygenase (Photinus pyralis, UniProt P08659); test: inhibition of purified Photinus pyralis luciferase – biochemical, luminescence, dose response (AID 1891)
[10] = Luminescence Cell-Based Dose Confirmation HTS to Identify Inhibitors of Platelet Dense Granule Release. [Related pubchem assays: 1663 (Primary HTS), 1678 (Summary of Project)]; assay type: functional
Phospholipase A2 = Phospholipase A2 (Homo sapiens, UniProt P04054); assay type: functional;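 further: confirmatory dose-response counterscreen on phospholipase A2, testing hits that came from an ultra-high-throughput screen for ATG4B inhibitors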
Cysteine protease ATG4B = target: T1, Cysteine protease ATG4B (Homo sapiens, UniProt Q9Y4P1); assay type: functional;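 further: Fluorescence-based dose-response confirmation assay measuring inhibition of ATG4B activity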
T1 sequence (Q9Y4P1 whole entry): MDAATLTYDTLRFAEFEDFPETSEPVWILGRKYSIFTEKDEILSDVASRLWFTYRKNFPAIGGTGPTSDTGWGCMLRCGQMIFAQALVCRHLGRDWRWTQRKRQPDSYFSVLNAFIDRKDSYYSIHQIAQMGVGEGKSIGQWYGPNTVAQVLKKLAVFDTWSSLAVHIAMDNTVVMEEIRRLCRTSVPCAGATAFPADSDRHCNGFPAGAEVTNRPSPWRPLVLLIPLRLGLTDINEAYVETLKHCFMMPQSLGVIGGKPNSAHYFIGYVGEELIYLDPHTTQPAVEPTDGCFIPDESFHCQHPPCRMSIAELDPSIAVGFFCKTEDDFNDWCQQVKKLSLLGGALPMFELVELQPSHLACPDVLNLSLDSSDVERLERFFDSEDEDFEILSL

[11] = target: Nuclear receptor subfamily 5 group A member 2 (Homo sapiens, UniProt O00482); assay type: functional, cell-based;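 further: HEK293T cells transfected with LRH-1 and a StAR promoter luciferase reporter; potency for inhibitors that lower LRH-1 driven reporter light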
[12] = nonselective StAR promoter luciferase inhibitors – cell-based, luminescence, luciferase reporter, counter-screen for LRH-1 inverse agonist project, dose response (AID 651969); assay type: functional
Steroidogenic factor 1 = Steroidogenic factor 1 (Homo sapiens, UniProt Q13285); test: Counterscreen for inverse agonists of the liver receptor homolog-1 (LRH-1; NR5A2): Luminescence-based cell-based high throughput dose response assay to identify inverse agonists of the Steroidogenic Factor 1 Nuclear Receptor (SF1; NR5A1).; assay type: functional
Caspase-3 = target: T2, Caspase-3 (Homo sapiens, UniProt P42574); test: Dose-response confirmation of uHTS inhibitor hits of Sentrin-Specific Protease 8 in a Caspase-3 Fluorescence assay.; assay type: functional
T2 sequence (P42574 whole entry): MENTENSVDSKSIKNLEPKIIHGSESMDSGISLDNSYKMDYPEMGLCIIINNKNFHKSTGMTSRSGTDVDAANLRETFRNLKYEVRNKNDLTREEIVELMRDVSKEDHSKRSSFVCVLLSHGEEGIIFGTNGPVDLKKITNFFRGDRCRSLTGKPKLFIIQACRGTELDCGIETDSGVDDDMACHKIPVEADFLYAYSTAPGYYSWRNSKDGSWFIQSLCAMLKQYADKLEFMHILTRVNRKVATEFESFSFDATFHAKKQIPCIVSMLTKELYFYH

[13] = target: T3, Sentrin-specific protease 8 (Homo sapiens, UniProt Q96LD8); assay type: functional
T3 sequence (Q96LD8 whole entry): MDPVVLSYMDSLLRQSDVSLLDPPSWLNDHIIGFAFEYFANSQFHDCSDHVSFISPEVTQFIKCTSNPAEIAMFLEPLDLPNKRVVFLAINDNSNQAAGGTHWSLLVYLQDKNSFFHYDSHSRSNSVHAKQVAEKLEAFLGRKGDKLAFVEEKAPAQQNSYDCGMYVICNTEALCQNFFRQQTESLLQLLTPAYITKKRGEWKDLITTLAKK

[14] = target: T3, Sentrin-specific protease 8; assay type: functional; remark: listed apart in the source

Nuclear receptor subfamily 5 group A member 2, sequence (O00482 whole entry): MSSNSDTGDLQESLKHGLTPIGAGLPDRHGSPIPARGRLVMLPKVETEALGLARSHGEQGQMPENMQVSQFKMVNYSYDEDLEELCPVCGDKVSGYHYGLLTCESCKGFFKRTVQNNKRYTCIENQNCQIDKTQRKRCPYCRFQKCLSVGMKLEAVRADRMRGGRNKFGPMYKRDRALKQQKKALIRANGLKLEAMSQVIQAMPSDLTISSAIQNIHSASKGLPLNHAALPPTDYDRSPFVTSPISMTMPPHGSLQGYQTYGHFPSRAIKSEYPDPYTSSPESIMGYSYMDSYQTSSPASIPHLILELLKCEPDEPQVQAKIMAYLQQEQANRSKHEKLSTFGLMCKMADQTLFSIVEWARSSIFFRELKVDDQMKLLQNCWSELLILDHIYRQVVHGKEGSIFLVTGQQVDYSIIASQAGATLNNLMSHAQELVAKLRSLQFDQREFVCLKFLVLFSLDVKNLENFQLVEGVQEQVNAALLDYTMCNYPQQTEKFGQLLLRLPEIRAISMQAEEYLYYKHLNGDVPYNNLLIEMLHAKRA
Tyrosine-protein phosphatase non-receptor type 5, sequence (P54829 whole entry): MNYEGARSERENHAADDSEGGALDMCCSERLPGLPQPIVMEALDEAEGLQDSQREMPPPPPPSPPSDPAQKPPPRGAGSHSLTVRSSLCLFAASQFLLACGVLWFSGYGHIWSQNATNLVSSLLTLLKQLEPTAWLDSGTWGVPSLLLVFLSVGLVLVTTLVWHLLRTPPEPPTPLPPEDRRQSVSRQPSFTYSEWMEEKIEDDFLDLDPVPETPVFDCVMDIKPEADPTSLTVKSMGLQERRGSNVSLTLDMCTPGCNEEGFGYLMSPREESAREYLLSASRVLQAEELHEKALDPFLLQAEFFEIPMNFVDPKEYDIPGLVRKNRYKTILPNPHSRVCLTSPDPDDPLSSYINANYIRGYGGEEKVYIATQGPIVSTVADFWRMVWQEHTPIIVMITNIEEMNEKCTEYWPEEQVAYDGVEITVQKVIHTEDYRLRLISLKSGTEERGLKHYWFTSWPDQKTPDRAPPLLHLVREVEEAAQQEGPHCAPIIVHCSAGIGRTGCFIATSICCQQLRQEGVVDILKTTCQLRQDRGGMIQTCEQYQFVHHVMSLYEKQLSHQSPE
Luciferin 4-monooxygenase, sequence (P08659 whole entry): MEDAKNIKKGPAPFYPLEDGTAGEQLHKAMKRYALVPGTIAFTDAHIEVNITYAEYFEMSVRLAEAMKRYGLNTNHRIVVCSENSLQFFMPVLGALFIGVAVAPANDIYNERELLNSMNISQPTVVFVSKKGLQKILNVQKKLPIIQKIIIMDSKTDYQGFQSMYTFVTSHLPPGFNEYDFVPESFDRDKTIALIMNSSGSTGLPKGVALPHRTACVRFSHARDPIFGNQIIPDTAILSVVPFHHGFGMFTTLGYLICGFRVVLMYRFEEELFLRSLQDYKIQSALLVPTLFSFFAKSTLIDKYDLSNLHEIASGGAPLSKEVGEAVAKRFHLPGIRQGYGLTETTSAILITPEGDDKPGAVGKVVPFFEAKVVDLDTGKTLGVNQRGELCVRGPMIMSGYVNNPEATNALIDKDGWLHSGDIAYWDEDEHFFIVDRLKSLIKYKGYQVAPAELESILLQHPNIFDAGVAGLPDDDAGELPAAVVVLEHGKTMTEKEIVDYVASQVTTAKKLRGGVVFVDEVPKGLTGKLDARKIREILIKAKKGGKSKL
Tyrosine-protein phosphatase non-receptor type 11, sequence (Q06124 whole entry): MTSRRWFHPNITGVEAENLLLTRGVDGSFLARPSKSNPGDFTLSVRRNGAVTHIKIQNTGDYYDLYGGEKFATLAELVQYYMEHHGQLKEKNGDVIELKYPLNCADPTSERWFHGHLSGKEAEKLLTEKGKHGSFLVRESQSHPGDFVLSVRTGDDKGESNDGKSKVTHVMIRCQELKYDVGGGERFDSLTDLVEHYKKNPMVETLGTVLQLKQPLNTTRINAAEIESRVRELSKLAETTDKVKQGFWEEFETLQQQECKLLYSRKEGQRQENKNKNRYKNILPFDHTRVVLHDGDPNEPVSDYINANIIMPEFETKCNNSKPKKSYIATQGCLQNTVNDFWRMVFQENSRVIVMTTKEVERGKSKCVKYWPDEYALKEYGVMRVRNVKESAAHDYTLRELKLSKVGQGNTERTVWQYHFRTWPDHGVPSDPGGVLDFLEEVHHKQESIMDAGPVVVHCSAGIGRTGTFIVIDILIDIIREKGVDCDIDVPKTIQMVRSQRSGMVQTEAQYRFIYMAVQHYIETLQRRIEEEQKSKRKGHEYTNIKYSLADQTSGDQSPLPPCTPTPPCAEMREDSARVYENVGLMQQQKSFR
Steroidogenic factor 1, sequence (Q13285 whole entry): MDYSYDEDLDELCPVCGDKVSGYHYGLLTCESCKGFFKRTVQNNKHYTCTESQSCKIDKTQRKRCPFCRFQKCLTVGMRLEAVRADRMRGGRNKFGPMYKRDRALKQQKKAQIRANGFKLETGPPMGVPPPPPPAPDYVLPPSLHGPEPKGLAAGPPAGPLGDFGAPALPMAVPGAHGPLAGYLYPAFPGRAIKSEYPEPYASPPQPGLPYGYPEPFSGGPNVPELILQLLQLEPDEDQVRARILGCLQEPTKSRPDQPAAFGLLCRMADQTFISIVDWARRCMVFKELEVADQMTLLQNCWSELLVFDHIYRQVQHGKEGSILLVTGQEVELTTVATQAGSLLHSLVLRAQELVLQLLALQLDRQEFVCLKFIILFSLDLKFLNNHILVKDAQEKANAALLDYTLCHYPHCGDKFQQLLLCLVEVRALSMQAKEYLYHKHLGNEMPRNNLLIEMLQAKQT
Phospholipase A2, sequence (P04054 whole entry): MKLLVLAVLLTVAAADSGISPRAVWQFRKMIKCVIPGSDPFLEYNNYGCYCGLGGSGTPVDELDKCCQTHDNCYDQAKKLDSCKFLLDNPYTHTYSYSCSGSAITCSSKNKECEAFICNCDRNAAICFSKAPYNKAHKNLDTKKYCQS
Dual specificity protein phosphatase 3, sequence (P51452 whole entry): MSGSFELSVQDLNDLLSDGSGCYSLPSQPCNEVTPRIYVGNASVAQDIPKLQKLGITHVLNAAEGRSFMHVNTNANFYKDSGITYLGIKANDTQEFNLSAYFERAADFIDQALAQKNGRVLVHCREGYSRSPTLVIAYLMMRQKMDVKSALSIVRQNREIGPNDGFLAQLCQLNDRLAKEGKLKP

COCCCN(C(S)=Nc1c(C)cc(C)cc1C)C(C)c1ccccn1 (centres undefined)
IC50 [1]: 4.94 µM (active) | IC50 [2]: > 80 µM (inactive) | IC50 [3]: 15.1 µM (active)

COc1ccc(OC)c(Nc2nc(N)nc(CCl)n2)c1
EC50 (BJ [4]): > 150 µM (inconclusive) | EC50 [5]: 2.16 µM (active) | CC50 (Vero): 7.93 µM (active) | EC50 (BJ [6]): 4.66 µM (inconclusive) | EC50 (BJ [7]): 15.7 µM (active) | EC50 (BJ [8]): 0.258 µM (active)

Cc1cccc(OCC(=O)Nc2ccccc2-c2ccccc2)c1
EC50 [9]: 73.8 µM (active) | EC50 [10]: > 112 µM (not active) | IC50 (Phospholipase A2): 11.9 µM (active) | IC50 (Cysteine protease ATG4B): 11.5 µM (active)

COC(=O)c1ccc(NC(=O)CN2CCN(c3ccc(Cl)cc3)CC2)cc1
IC50 [11]: 35.9 µM (inactive) | IC50 [12]: 35.9 µM (inactive) | IC50 (Steroidogenic factor 1): 30.7 µM (inactive)

O=C1CC(N2CCOCC2)=NN1c1ccc([N+](=O)[O-])cc1
IC50 (Caspase-3): 100 µM (inactive) | IC50 [13]: 24.6 µM (active) | IC50 [14]: 11.7 µM (active)
